US5376673A, “Isoindoles having cardiovascular activity” (Italfarmaco S.p.A., priority 1991, dated 1994)

How the values were obtained:
rabbit aorta = assay: In vitro vasorelaxing activity (aorta strip contracted with noradrenaline); conditions: Oryctolagus cuniculus, contraction induced by noradrenaline
Procedure: The vasorelaxing activity of the compounds of the invention was determined on rabbit aorta which had been contracted with noradrenaline, according to the method described in Eur. J. Pharmacol, 141, 195 (1987).
IC50 = concentration of active substance, expressed in mole/liter,
able to inhibit by 50% the contraction of the aorta "strip" induced by […]

[1] = system: Sprague Dawley anaesthetized rats; assay: Vasopressine angina in the anaesthetized rat (in vivo antianginal activity); set-up: species or system Sprague Dawley rat; conditions: 3 mg/kg by gastric gavage, 1 hour before Arg-vasopressin i.v.
Procedure: The in vivo antianginal activity was evidenced on Sprague Dawley anaesthetized rats, weighing 350-400 g, operating according to the procedure of M. Leitold et al., Arzneim. Forsch. 36, 1454, 1986. The test was carried out administering the animal intravenously with 1 I. U./kg, equivalent to […] of Arg-vasopressin, which induces a coronary spasm which can be reproduced and evidenced electrocardiographycally with an increase in the amplitude of the T wave. The compounds of the invention were admininistered by gastric gavage at a dose of 3 mg/kg, 1 hour before administration of Argvasopressin. The antianginal effect was expressed as percent inhibition of the T wave increase versus controls.

Row | SMILES | IC50 (rabbit aorta) | Effect (percent inhibition of the T wave increase versus controls) [1]
1 | CC(=O)OC1c2ccccc2C(=O)N1CCO[N+](=O)[O-] (centres unmarked) [Example 2, 3-Acetoxy-2-(2-nitrooxyethyl)-1-oxoisoindolin] | 1.2 µM | 
2 | O=C1c2ccccc2C(O)N1CCCCCO[N+](=O)[O-] (centres unmarked) [Example 5, 3-Hydroxy-2-(5-nitrooxypentyl)-1-oxoisoindolin] | 13 µM | 
3 | CCCC(=O)OC1c2ccccc2C(=O)N1CCO[N+](=O)[O-] (centres unmarked) [Example 3] | 2.4 µM | -55.2%
4 | O=C1c2ccccc2C(O)N1CCO[N+](=O)[O-] (centres unmarked) [Example 1, 3-Hydroxy-2-(2-nitrooxyethyl)-1-oxoisoindolin] | 1.3 µM | -56.1%
5 | O=C(OC1c2ccccc2C(=O)N1CCO[N+](=O)[O-])c1ccccc1 (centres unmarked) [Example 4, 3-Benzoyloxy-2-(5-nitrooxyethyl)-1-oxoisoindolin] | 3.2 µM | -34.5%
